Test results as given in patent US20260176284A1, “Compounds with Anti-KRAS Mutated Tumor Activity” (Trasveda Ltd., priority 2022, published 2026).
Where two headings read alike, the source gives them in different places.

Tested on: KRAS G12D mutated AGS human gastric adenocarcinoma cells
Experiment: Proliferation inhibition of KRAS G12D mutant AGS cells, another experiment with similar protocol (includes MRTX1133)
Format: cell-based
Experimental: In another experiment, using a protocol similar to the one described above, the inhibitory activity of some representative compounds of the present invention against KRAS G12D mutated AGS human gastric adenocarcinoma cells was determined.
The synthesis of compound MRTX1133 was performed according to the method described in J. Med. Chem. 2022, 65, 4, 3123-3133.

Compound `[2H]C([2H])([2H])[C@@]1(COc2nc(N3CC4CCC(C3)N4)c3cnc(-c4cc(O)cc5ccc(F)c(C#C)c45)c(F)c3n2)CN(C)CC[C@@H]1C(F)F` (single isomer, unassigned) [Example 426, (Sa) or (Ra)-4-(4-((1R,5S)-3,8-diazabicyclo[3.2.1]octan-3-yl)-2-(((3S,4S)-4-(difluoromethyl)-1-methyl-3-(methyl-d3)piperidin-3-yl)methoxy)-8-fluoropyrido[4,3-d]pyrimidin-7-yl)-5-ethynyl-6-fluoronaphthalen-2-ol] has an IC50 (Homo sapiens) of 7 nM.
`C#Cc1c(F)ccc2cc(O)cc(-c3c(F)cc4c(N5CC6CCC(C5)N6)nc(OC[C@]5(C)CN(C)CC[C@@H]5CF)nc4c3F)c12` (atropisomer, axis not shown; (Ra)) [Example 45-3] gave an IC50 (Homo sapiens) of 5 nM.
`C#Cc1c(F)ccc2cc(O)cc(-c3c(F)cc4c(N5CC6CCC(C5)N6)nc(OC[C@]5(C)CN(C)CCC5=C)nc4c3F)c12` (atropisomer, axis not shown; (Ra)) [Example 40, (Ra)-4-(4-((1R,5S)-3,8-diazabicyclo[3.2.1]octan-3-yl)-2-(((S)-1,3-dimethyl-4-methylenepiperidin-3-yl)methoxy)-6,8-difluoroquinazolin-7-yl)-5-ethynyl-6-fluoronaphthalen-2-ol] showed an IC50 (Homo sapiens) of 9 nM.
`CN1CC[C@H](C(F)F)[C@](C)(COc2nc(N3C[C@H]4CC[C@@H](C3)N4)c3cc(Cl)c(-c4cccc5sc(N)c(C#N)c45)c(F)c3n2)C1` [Example 312-1, (4-((1R,5S)-3,8-diazabicyclo[3.2.1]octan-3-yl)-6-chloro-2-(((3S,4S)-4-(difluoromethyl)-1,3-dimethylpiperidin-3-yl)methoxy)-8-fluoroquinazolin-7-yl)-2-aminobenzo[b]thiophene-3-carbonitrile] showed an IC50 of 11 nM.
With `C#Cc1c(F)ccc2cc(O)cc(-c3ncc4c(N5CC6CCC(C5)N6)nc(OC[C@]5(CC)CN(C)CC[C@@H]5C(F)F)nc4c3F)c12` (racemic) [Example 396, (±)4-(4-((1R,5S)-3,8-diazabicyclo[3.2.1]octan-3-yl)-2-(((3S,4S)-4-(difluoromethyl)-3-ethyl-1-methylpiperidin-3-yl)methoxy)-8-fluoropyrido[4,3-A]pyrimidin-7-yl)-5-ethynyl-6-fluoronaphthalen-2-ol] the IC50 (Homo sapiens) was 11 nM.
`CN1CC/C(=C\F)[C@](C)(COc2nc(N3CC4CCC(C3)N4)c3cc(F)c(-c4cccc5sc(N)c(C#N)c45)c(F)c3n2)C1` [Example 194] was tested, and the IC50 (Homo sapiens) was 97 nM.
With `CN1CC[C@H](C(F)F)[C@](C)(COc2nc(N3C[C@H]4CC[C@@H](C3)N4)c3cc(C#N)c(-c4cccc5sc(N)c(C#N)c45)c(F)c3n2)C1` [Example 328, 7-(2-amino-3-cyanobenzo[b]thiophen-4-yl)-4-((1R,5S)-3,8-diazabicyclo[3.2.1]octan-3-yl)-2-(((3S,4S)-4-(difluoromethyl)-1,3-dimethylpiperidin-3-yl)methoxy)-8-fluoroquinazoline-6-carbonitrile] the IC50 (Homo sapiens) was 45 nM.
In the case of `C#Cc1c(F)ccc2cc(O)cc(-c3ncc4c(N5CC6CCC(C5)N6)nc(OC[C@]5(C)CN(C)CC[C@@H]5F)nc4c3F)c12` [Example 67-1], the IC50 (Homo sapiens) is reported as 77 nM.
With `C#Cc1c(F)ccc2cc(O)cc(-c3c(F)cc4c(N5C[C@H]6CC[C@@H](C5)N6)nc(OC[C@]5(C)CN(CC)CCC56CC6)nc4c3F)c12` [Example 95, 4-(4-((1R,5S)-3,8-diazabicyclo[3.2.1]octan-3-yl)-2-(((S)-6-ethyl-4-methyl-6-azaspiro[2.5]octan-4-yl)methoxy)-6,8-difluoroquinazolin-7-yl)-5-ethynyl-6-fluoronaphthalen-2-ol] the IC50 (Homo sapiens) was 8 nM.
In the case of `C#Cc1c(F)ccc2cc(O)cc(-c3nc(OC)c4c(N5C[C@H]6CC[C@@H](C5)N6)nc(OC[C@]5(C)CN(C)CC[C@@H]5CF)nc4c3F)c12` [Example 260, 4-(4-((1R,5S)-3,8-diazabicyclo[3.2.1]octan-3-yl)-8-fluoro-2-(((3S,4S)-4-(fluoromethyl)-1,3-dimethylpiperidin-3-yl)methoxy)-5-methoxypyrido[4,3-d]pyrimidin-7-yl)-5-ethynyl-6-fluoronaphthalen-2-ol], the IC50 (Homo sapiens) is reported as 3 nM.
